# Literature values as cited in patent publication US20060147391A1, “Composition for enhancing oral health” (priority 2002, published 2006).
# Test system: oral microorganisms (intraoral bacteria such as Streptococcus mutans, Streptococcus sobrinus and Porphyromonas gingivalis)
# Details: reported result in vitro (Korean publications, WO 00/67711)
compound,measurement,value
CC(C)=CCC[C@@H](C)c1ccc(C)c(O)c1 [Xanthorrhizol],antibacterial activity against oral microorganisms,excellent antibacterial activity
